Data on 3 compounds can be found in patent publication US20020193383A1, “1-(N-phenylalkylaminoalkyl)piperazine derivatives substituted at position 2 of the phenyl ring” (Recordati S.A., Chemical and Pharmaceutical Comoany, priority 1997, published 2002).

The test deals with T1, human 5-HT1A serotonergic receptor (Homo sapiens, UniProt P08908).
T1 construct: expressed in transfected cells; host or cells: HeLa (stably transfected)
T1 sequence (P08908 1-422): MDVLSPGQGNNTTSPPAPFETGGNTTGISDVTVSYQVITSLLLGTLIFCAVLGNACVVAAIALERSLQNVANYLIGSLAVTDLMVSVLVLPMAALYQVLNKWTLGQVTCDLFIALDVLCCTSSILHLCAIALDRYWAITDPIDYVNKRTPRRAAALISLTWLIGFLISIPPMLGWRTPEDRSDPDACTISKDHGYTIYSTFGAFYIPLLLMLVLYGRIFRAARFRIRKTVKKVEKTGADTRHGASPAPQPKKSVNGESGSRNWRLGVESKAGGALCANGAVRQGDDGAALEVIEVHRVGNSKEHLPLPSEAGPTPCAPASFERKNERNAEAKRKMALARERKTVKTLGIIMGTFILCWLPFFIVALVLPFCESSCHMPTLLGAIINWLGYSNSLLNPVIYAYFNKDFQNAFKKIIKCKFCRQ
The test can be described thus: Binding to recombinant human 5-HT1A receptors ([3H]8-OH-DPAT, HeLa cell membranes). Particulars: read-out: Binding affinity for the 5-HT1A receptor, Ki. Here is the method: Genomic clone G-21 coding for the human 5-HT1A serotonergic receptor is stably transfected in a human cell line (HeLa). HeLa cells were grown as monolayers in Dulbecco's modified Eagle's medium (DMEM), supplemented with 10% fetal calf serum and gentamicin ([…]), 5% CO2 at 37° C. Cells were detached from the growth flask at 95% confluence by a cell scraper and were lysed in ice-cold 5 mM Tris and 5 mM EDTA buffer (pH 7.4). Homogenates were centrifuged at 40000×g×20 min and pellets were resuspended in a small volume of ice-cold 5 mM Tris and 5 mM EDTA buffer (pH 7.4) and immediately frozen and stored at −70° C. until use. On the day of experiment, cell membranes were resuspended in binding buffer: 50 mM Tris HCl (pH 7.4), 2.5 mM MgCl2, 10 μM pargiline (Fargin et al., Nature 335, 358-360, 1988). Membranes were incubated in a final volume of 1 ml for 30 min at 30° C. with 0.2-1 nM [3H]8-OH-DPAT, in absence or presence of competing drugs; non-specific binding was determined in the presence of 10 μM 5-HT. The incubation was stopped by addition of ice-cold Tris-HCl buffer and rapid filtration through 0.2% polyethyleneimine pretreated Whatman GF/B or Schleicher & Schuell GF52 filters.
The inhibition of specific binding of the radioligands by the tested drugs was analyzed to estimate the IC50 value by using the non-linear curve-fitting program Allfit (De Lean et al., Am. J. Physiol. 235, E97-E102, 1978). The IC50 value was converted to an affinity constant (Ki) by the equation of Cheng & Prusoff (Cheng, Y. C.; Prusoff, W. H. Biochem. Pharmacol. 22, 3099-3108, 1973).

Each structure is given as a SMILES string.

Regarding `COc1cc(O)ccc1N1CCN(CCN(C(=O)C2CCCCC2)c2ccccc2OC(F)(F)F)CC1` [Example 93, 1[N-cyclohexylcarbonyl-N-(2-trifluoromethoxyphenyl)-2-aminoethyl]-4-(4-hydroxy-2-methoxyphenyl)piperazine], the Ki is 1.6 nM.

Regarding `COc1cc(OC(=O)C(C)C)ccc1N1CCN(CCN(C(=O)C2CCCCC2)c2ccccc2OC(F)(F)F)CC1` [Example 96, 1-[N-cyclohexylcarbonyl-N-(2-trifluoromethoxyphenyl)-2-aminoethyl]-4-[4-(2-methylpropionyloxy)-2-methoxyphenyl]piperazine], the inhibition constant (Ki) is 1.2 nM.

Take `COc1cc(OC(C)=O)ccc1N1CCN(CCN(C(=O)C2CCCCC2)c2ccccc2OC(F)(F)F)CC1` [Example 94, 1-[N-cyclohexylcarbonyl-N-(2-trifluoromethoxyphenyl)-2-aminoethyl]-4-(4-acetoxy-2-methoxyphenyl)piperazine]: the Ki came to 2.14 nM.

As usually defined, the Ki is a dissociation constant, usually derived from enzyme kinetics or from competition with a known ligand.
